Experimental data as given in patent US12331018B2, “Pyrrolidine orexin receptor agonists” (Merck Sharp & Dohme LLC, priority 2019, dated 2025).

Target: T1, human OX2R (Homo sapiens, UniProt O43614)
T1 construct: expressed in transfected cells; host or cells: CHO (Chinese hamster ovary) cells, grown under G418 selection
T1 sequence (O43614 1-444): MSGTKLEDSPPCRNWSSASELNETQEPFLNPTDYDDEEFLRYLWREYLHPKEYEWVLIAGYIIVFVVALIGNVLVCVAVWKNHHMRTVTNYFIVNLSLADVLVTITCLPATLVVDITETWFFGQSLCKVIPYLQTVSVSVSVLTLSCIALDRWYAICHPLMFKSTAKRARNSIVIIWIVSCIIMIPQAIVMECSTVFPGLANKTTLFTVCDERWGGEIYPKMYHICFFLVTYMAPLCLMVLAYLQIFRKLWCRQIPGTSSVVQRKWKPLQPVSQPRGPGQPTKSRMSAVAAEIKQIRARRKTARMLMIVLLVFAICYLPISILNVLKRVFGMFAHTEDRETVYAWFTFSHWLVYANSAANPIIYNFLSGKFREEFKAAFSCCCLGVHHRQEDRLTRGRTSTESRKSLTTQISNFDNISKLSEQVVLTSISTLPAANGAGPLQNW
Assay: IPOne (IP-1 accumulation) assay in CHO cells expressing human OX2R
Assay type: cell-based
Conditions: for EC50: CHO cells expressing human OX2R, IP-One assay, 2 hours incubation, four parameter logistic fit, read-out: OX2R Potency, EC50; for Emax, % of reference agonist: OX2R, percentage of sample raw value/mean max effect (reference compound at 1 uM with 100% activity)
Source text: The utility of the compounds in accordance with the present invention as orexin receptor OX1R and/or OX2R agonists may be readily determined without undue experimentation by methodology well known in the art. Both the OX1R and/or OX2R G-coupled protein receptors (GPCRs) couple through the Gaq signaling pathway, which ultimately promotes calcium mobilization via inositol triphosphate (IP3) production. The half-life of IP-3 is relatively short, being rapidly metabolized to inositol monophosphate (IP-1), which can be readily detected using a commercially available assay kit (IP-One; Cisbio; cat #621PAPEC) coupled with a cell line expressing the target receptor(s) of interest. The utility of the compounds in accordance with the present invention as orexin receptor OX1R and/or OX2R agonists may be determined utilizing this assay.
In a typical experiment, the OX1 and OX2 receptor agonist activity is determined in accordance with the following general experimental method. Chinese hamster ovary (CHO) cells expressing human OX1R and/or the human OX2R were grown in Iscove's modified DMEM containing glutaMAX™, 1% G418, 100 U/mL penicillin, 100 μg/mL streptomycin and 10% heat-inactivated qualified fetal bovine serum (FBS). The OX2R cells were seeded at 10,000 cells/well/50 μL and the OX1R cells were seeded at 20,000 cells/well/50 μL into 384-well white tissue culture plates (Greiner; cat #781080). All cell/media reagents were from GIBCO-Invitrogen Corp. The seeded cell plate(s) were incubated at 37° C. with 5% CO2 and 85% humidity for 20-24 hours. On the day of the assay, assay-ready compound plates were prepared using an acoustic liquid handler (ECHO; Labcyte), which dispensed sufficient volume of test compound stock (10 mM in DMSO) or 100% DMSO to prepare 10 point, ½-log dilutions in a final volume of 202.5 nL/well in all test wells of a 384-well diamond plate (Labcyte). Following completion of assay-ready plates, importantly, the next three steps were performed with minimal delay: 1) 20 μl of 1× stimulation buffer was added to the compound plate using a Multidrop Combi (small cassette, Thermo Fisher Scientific cat #24073290); 2) culture medium was removed from the cell plate using the Bluewasher plate washer (gentle spin; BlueCatBio); 3) 14 μl of compound/stimulation buffer mixture was added to the cell plate using a Bravo liquid handler (Agilent) prior to incubating cell plates at 37° C. with 5% CO2 and 85% humidity for 1 or 2 hours (OX1R and OX2R, respectively). During this incubation, IP-one detection reagents were prepared (38:1:1 lysis buffer:D2:AB-cryptate reagents). Six μL of mixed detection reagents were added to the cell plate using a Multidrop Combi (small cassette, Thermo Fisher Scientific cat #24073290) and incubated 60 minutes at room temperature in the dark. Fluorescence signal was detected using an Envision plate reader (Perkin Elmer) [LANCE/DELFIA Dual Enh (Em: APC 665; Ex: Cy5 620)].
For each compound, data were fit to a four parameter logistic fit (ActivityBase software) and the EC50 was reported as the inflection point of the resulting curve. Percent effect for each test compound was determined as the percentage of sample raw value/mean max effect, where the mean max effect was derived from the mean raw value of 32 control wells per assay plate (using Orexin A (cat #003-30) at 1 μM for human OX1R and a reference compound at 1 uM with 100% activity previously established by comparison to Orexin A for human OX2R). The intrinsic orexin receptor agonist activity of a compound which may be used in the present invention may be determined by these assays.

Row | Compound | EC50 | Emax, % of reference agonist
1 | COC(=O)N1CC[C@@H](NS(=O)(=O)N(C)C)[C@H]1CO[C@H]1CC[C@@H](c2ccccc2)CC1 (relative stereo) [Example 19, methyl (CIS)-3-((N,N-dimethylsulfamoyl)amino)-2-((((CIS)-4-phenylcyclohexyl)oxy)methyl) pyrrolidine-1-carboxylate] | 39.4 nM | 98.8%
2 | COC(=O)N1CC[C@@H](NS(=O)(=O)CF)[C@H]1CO[C@H]1CC[C@@H](c2ccccc2)CC1 (relative stereo) [Example 16, methyl (CIS)-3-((fluoromethyl)sulfonamido)-2-((((CIS)-4-phenylcyclohexyl)oxy)methyl) pyrrolidine-1-carboxylate] | 177 nM | 100.7%
3 | COC(=O)N1CC[C@H](NS(C)(=O)=O)[C@@H]1CO[C@H]1CC[C@@H](c2ccccc2)CC1 (relative stereo) [Example 2, methyl (CIS)-3-(methylsulfonamido)-2-((((CIS)-4-phenylcyclohexyl)oxy)-methyl)pyrrolidine-1-carboxylate] | 328 nM | 96.4%
4 | CCS(=O)(=O)N[C@H]1CCN(C(=O)OC)[C@H]1CO[C@H]1CC[C@@H](c2ccccc2)CC1 (relative stereo) [Example 13, methyl (CIS)-3-(ethylsulfonamido)-2-((((CIS)-4-phenylcyclohexyl)oxy)methyl)pyrrolidine-1-carboxylate] | 136 nM | 99.9%
5 | CNS(=O)(=O)N[C@@H]1CCN(C(=O)OC)[C@@H]1CO[C@H]1CC[C@@H](c2ccccc2)CC1 (relative stereo) [Example 18, methyl (CIS)-3-((N-methylsulfamoyl)amino)-2-((((CIS)-4-phenylcyclohexyl)oxy)methyl) pyrrolidine-1-carboxylate] | 66.5 nM | 98.5%
6 | CS(=O)(=O)N[C@H]1CCN(C(=O)CO)[C@H]1CO[C@H]1CC[C@@H](c2ccccc2)CC1 (relative stereo) [Example 25, N-((CIS)-1-(2-hydroxyacetyl)-2-((((CIS)-4-phenylcyclohexyl)oxy)methyl)pyrrolidin-3-yl)methanesulfonamide] | 361 nM | 103.3%
7 | CS(=O)(=O)N[C@H]1CCN(C(=O)CC(F)(F)F)[C@H]1CO[C@H]1CC[C@@H](c2ccccc2)CC1 (relative stereo) [Example 20, N-((CIS)-2-((((CIS)-4-phenylcyclohexyl)oxy)methyl)-1-(3,3,3-trifluoropropanoyl)pyrrolidin-3-yl)methanesulfonamide] | 1010 nM | 96.4%
8 | CS(=O)(=O)N[C@H]1CCN(C(=O)C2CC2)[C@H]1CO[C@H]1CC[C@@H](c2ccccc2)CC1 (relative stereo) [Example 8, N-((CIS)-1-(cyclopropanecarbonyl)-2-((((CIS)-4-phenylcyclohexyl)oxy)methyl)pyrrolidin-3-yl) methanesulfonamide] | 77.9 nM | 101.6%
9 | CS(=O)(=O)N[C@H]1CCN(C(=O)NCC(F)(F)F)[C@H]1CO[C@H]1CC[C@@H](c2ccccc2)CC1 (relative stereo) [Example 10, (CIS)-3-(methylsulfonamido)-2-((((CIS)-4-phenylcyclohexyl)oxy)methyl)-N-(2,2,2-trifluoroethyl)pyrrolidine-1-carboxamide] | 3.65 nM | 103.7%
10 | CS(=O)(=O)N[C@H]1CCN(C(=O)OCC(F)F)[C@H]1CO[C@H]1CC[C@@H](c2ccccc2)CC1 (relative stereo) [Example 23, 2,2-difluoroethyl (CIS)-3-(methylsulfonamido)-2-((((CIS)-4-phenylcyclohexyl)oxy)methyl)-pyrrolidine-1-carboxylate] | 59.6 nM | 101.3%
